Test system: Corynebacterium A sp. NCIMB 40928
Test: In vitro model of fatty acid catabolism by axillary bacteria (culture viability and remaining fatty acid after 24 h)
Assay type: cell-based
Details: for Viability / Fatty acid utilisation: 24 h; for Viability: 35° C.; for Fatty acid utilisation: pentadecanoic acid 2.0 mg/ml
Protocol: This experiment uses the methods of WO 00/01353 to illustrate the much greater efficacy of 4-hydroxy-3-methoxybenzyl alcohol at inhibiting fatty acid catabolism by corynebacteria A, when compared with analogous materials previously disclosed in the aforementioned publication. Data illustrating the sub-lethal aspect of the inhibition are also presented.
An in vitro model system, reproducing fatty acid catabolism by axillary bacteria, was used. To each of several 250 ml baffled shake flasks was added 30 ml semi-synthetic medium (see below), supplemented with fatty acid substrate (2.0 mg/ml pentadecanoic acid) and non-fatty acid substrate (0.5 mg/ml glucose). To each flask (other than the control) was also added one of the indicated test materials, as a 10% (w/v) emulsion in semi-synthetic medium, supplemented with Gum Arabic (5.0 mg/ml). (Emulsions were formed by ultra-homogenisation at 24,000 rpm for about 1 min.) Each of the flasks was inoculated with fresh bacterial biomass (Corynebacterium A sp. NCIMB 40928), pre-grown for 24 h in TSBT (see below), to give starting optical densities (A590) of 1.0-2.0. Following inoculation, the flasks were incubated aerobically at 35° C., with agitation (130 rpm), for 24 hours. After this time, culture viability and remaining fatty acid were determined by methodology as described in […].
Composition of semi-synthetic medium in g/l: KH2PO4 (1.6), (NH4)2HPO4 (5.0), Na2SO4 (0.38), yeast nitrogen base (3.35) (Difco), yeast extract (0.5) (Beta Lab), Tween 80™ (0.2), Triton X-100™ (0.2), and MgCl2.6H2O (0.5).
Composition of TSBT (Tween-supplemented Tryptone soya broth) in g/l: Tryptone soya broth (30.0) (Merck), yeast extract (10.0) (Beta Lab), and Tween 80™ (1.0).
NCIMB 40928 in terms of culture viability and fatty acid utilisation. Various concentrations of active were investigated. It will be noted that for each of the Examples, culture viability was not substantially affected.

COc1cc(CCO)ccc1O [C, 4-hydroxy-3-methoxyphenethyl alcohol]
Viability (active conc. 1.0 g/l): 8.80 log10CFU/ml
Fatty acid utilisation (active conc. 1.0 g/l): 99%
Viability (active conc. 5.0 g/l): 8.60 log10CFU/ml
Fatty acid utilisation (active conc. 5.0 g/l): 59%
Viability (active conc. 10.0 g/l): 8.09 log10CFU/ml
Fatty acid utilisation (active conc. 10.0 g/l): 26%

COc1ccc(CO)cc1O [B, 3-hydroxy-4-methoxybenzyl alcohol]
Viability (active conc. 1.0 g/l): 8.90 log10CFU/ml
Fatty acid utilisation (active conc. 1.0 g/l): 99%
Viability (active conc. 5.0 g/l): 8.99 log10CFU/ml
Fatty acid utilisation (active conc. 5.0 g/l): 86%
Viability (active conc. 10.0 g/l): 8.62 log10CFU/ml
Fatty acid utilisation (active conc. 10.0 g/l): 29%

COc1cc(CO)ccc1O [Example 1, 4-hydroxy-3-methoxybenzyl alcohol]
Viability (active conc. 0.1 g/l): 8.91 log10CFU/ml
Fatty acid utilisation (active conc. 0.1 g/l): 65%
Viability (active conc. 0.25 g/l): 8.88 log10CFU/ml
Fatty acid utilisation (active conc. 0.25 g/l): 40%
Viability (active conc. 0.5 g/l): 8.28 log10CFU/ml
Fatty acid utilisation (active conc. 0.5 g/l): 20%
Reduction of the fatty acid catabolism of corynebacteria A (at a concentration of 0.5 mg/ml or less): greater than 50%
Concentration producing sub-lethal inhibition (greater than 50% inhibition of pentadecanoic acid utilisation without reduction in cell viability, ≦1 log10 CFU/ml) (corynebacteria A): ≤ 0.25 mg/ml

OCc1ccc(O)cc1 [A, 4-hydroxybenzyl alcohol]
Viability (active conc. 0.1 g/l): 8.69 log10CFU/ml
Fatty acid utilisation (active conc. 0.1 g/l): 100%
Viability (active conc. 0.25 g/l): 8.85 log10CFU/ml
Fatty acid utilisation (active conc. 0.25 g/l): 97%
Viability (active conc. 0.5 g/l): 8.17 log10CFU/ml
Fatty acid utilisation (active conc. 0.5 g/l): 21%

Source: patent US7510704B2, “Cosmetic compositions” (Unilever Home & Personal Care USA division of Conopco, Inc., priority 2001, dated 2009)
